In the OPERA property sets (Mansouri et al. 2018):

For `CCC1(C(C)(C)C)C(=O)NC(=O)NC1=O`, which logP is on record?
The logP was 1.38.

With `CCCC1(CCC)C(=O)NC(=S)NC1=O` as the compound, how does the logP read?
Its logP is 2.66.

For `CC(C)(C)C1C(=O)NC(=O)NC1=O`, which logP is on record?
The logP was 0.28.

With `CCC(C)C1(CC)C(=O)NC(=O)NC1=O` (stereo not drawn) as the compound, how does the logP read?
Its logP is 1.65.

For `CCCCC1(CCCC)C(=O)NC(=O)NC1=O`, which logP is on record?
Its logP is 2.7.

Which logP does the source give for `C=CCC1(C(C)(C)C)C(=O)NC(=O)NC1=O` here?
Its logP is 1.64.

Which logP does the source give for `CC(C)(C)C1(C)C(=O)NC(=O)NC1=O` here?
Its logP is 0.8.

With `CC(C)C1(C(C)C)C(=O)NC(=O)NC1=O` as the compound, how does the logP read?
Its logP is 1.56.

Which logP does the source give for `CCCC1(CCC)C(=O)NC(=O)NC1=O` here?
The logP was 1.75.

For `CC(C)C1C(=O)NC(=O)NC1=O`, which logP is on record?
The logP was -0.02.

For `CC(C)C1(C)C(=O)NC(=O)NC1=O`, which logP is on record?
The logP was 0.54.

Which logP does the source give for `CCC1(CC)C(=O)NC(=S)NC1=O` here?
The logP was 1.5.

Which logP does the source give for `CC(C)(C)C1(Cl)C(=O)NC(=O)NC1=O` here?
The logP was 0.82.
